# Measurements: PMC10835732, “Pharmacokinetics of Hydroxytyrosol and Its Sulfate and Glucuronide Metabolites after the Oral Administration of Table Olives to Sprague-Dawley Rats” (Journal of Agricultural and Food Chemistry, 2024)
# Like-named read-outs stand apart in the source and are kept apart here. Marks after values point to notes of the source that are not given here.
# What was measured:
# [1] = cited from earlier work; for share represented by hydroxytyrosol sulfates: ref Kotronoulas et al. 39
# [2] = Plasma pharmacokinetics (noncompartmental analysis) after single oral administration of Arbequina table olives; type: in vivo, Sprague-Dawley rats; conditions: for AUC0–∞ / Cmax/D / AUC0–∞/D / AUCt/D / Cl/F·fm (apparent clearance of metabolite) / MRT0–∞ / Vdarea/F·fm (apparent volume of distribution of metabolite, terminal phase) / Vss/F·fm (apparent steady-state volume of distribution of metabolite) / t1/2λz (apparent elimination half-life) / λz (apparent elimination rate constant) / AUCt / Cmax: geometric mean (95% CI); for Cmax/D: D = dose of hydroxytyrosol in nmol; for AUC0–∞/D / AUCt/D: D in nmol; for Tmax: median (min, max); for AUCt: time zero up to 8 h; for Cmax / percentage of the AUC of each compound divided by the AUC of the sum of all of them: plasma; for Cmax: read-out: Cmax; for half-life (t1/2λz) / mean residence time (MRT0–∞): oral table olives; for percentage of the AUC of each compound divided by the AUC of the sum of all of them: both doses (similar ratios between doses)
# Protocol: The experiments were performed using Sprague–Dawley rats (n = 13) randomly divided into two groups, the 30 olives group (n = 6) that received the dose of 3.85 g/kg and the 60 olives group (n = 7), which was given the dose of 7.70 g/kg. The freshly prepared homogeneous suspensions were given to overnight fasted rats by oral gavage (18-gauge × 76 mm, ref FFSS-186-76, Instech Laboratories, Inc., Plymouth Meeting, PA). The volume of administration was 10 mL/kg. After the single administration of Arbequina table olives, blood was obtained at 30, 60, 90, 120, 240, 360, and 480 min from each animal. Samples were withdrawn from the lateral saphenous vein and placed into Microvette CB 300 K2 EDTA-K2 (Sarstedt, Granollers, Spain) coated tubes.[31] At each time point, 0.40 mL of blood was collected, meaning that a maximum of 2.4 mL was obtained from each animal. […] Blood corresponding to 480 min was taken by a cardiac puncture with the animal under terminal anesthesia. Plasma was immediately obtained by centrifugation at 1500g at 4 °C for 15 min (Centrifuge Megafuge 1.0R, Heraeus, Boadilla, Spain) and kept at −20 °C until analysis.
# Hydroxytyrosol and its metabolites in plasma were determined by liquid–liquid extraction followed by LC-MS/MS analysis as previously described.[11] Briefly, 200 μL of plasma was mixed with 10 μL of freshly prepared 10% ascorbic acid followed by 10 μL of 0.5% acetic acid and 10 μL of 2-(3-hydroxyphenyl) ethanol (10 μM, I.S.). Then, 2 mL of ethyl acetate was added to the samples that were vigorously mixed in a vortex (5 min), placed into an ultrasonic bath (10 min), and centrifuged at 1500g at 4 °C (15 min) (Centrifuge Megafuge 1.0R). A second extraction of the pellet with 2 mL of ethyl acetate was carried out. Subsequently, the two pooled supernatants were evaporated to dryness, reconstituted with 100 μL of 80% methanol, placed into amber vials, and immediately analyzed by LC-MS/MS.
# The plasmatic concentrations were calculated by the interpolation of the peak area ratio of hydroxytyrosol versus I.S. on a calibration curve. Calibration standards were constructed with blank plasma obtained by cardiac puncture from overnight fasted rats that had never received either table olives or hydroxytyrosol. […] Results were expressed in nmol per liter of plasma (nmol/L). The method was validated following the EMA guidelines[33] at six different concentrations ranging from 0 to 250 nmol/L analyzed on three different days.
# Individual PK of hydroxytyrosol and its metabolites were estimated from the plasma concentrations versus time profiles of each animal, through a noncompartmental analysis (NCA) with Phoenix-64 (Build 8.3.4.295, Certara, Princeton, N.J., USA). All concentrations of each pharmacokinetic profile were considered for NCA because the values obtained were above the LOQ. Peak plasma concentration (Cmax) and time to peak plasma concentration (Tmax) were determined by visual inspection of the pharmacokinetic profiles. The apparent elimination rate constant (λz) was estimated from the terminal slope of the semilogarithmic concentration–time curve. The apparent elimination half-life (t1/2λz) was calculated as t1/2z = 0.693/λz. The area under the plasma concentration–time curve from time zero to the last experimental time (AUCt) with analyte concentrations above the LOQ, was calculated by the linear-log trapezoidal rule. The area from time zero to infinity (AUC0–∞) was calculated by adding to the AUCt value the extrapolated area calculated as the ratio between the predicted concentration (Ct) at the last sampling time with concentrations above the LOQ and λz. The mean residence time (MRT0–∞) was given by the ratio of the area under the first-moment curve (AUMC0–∞) to the area under the zero-moment curve (AUC0–∞). The ratio indicating the relative exposure of each metabolite with respect to hydroxytyrosol (AUC0–∞m/AUC0–∞) was also calculated for all of the metabolites. […]
# [3] = 30 olives group (hydroxytyrosol 2.95 mg/kg oral), listed as hydroxytyrosol sulfate M1-a
# [4] = 60 olives group (hydroxytyrosol 5.89 mg/kg oral), listed as hydroxytyrosol sulfate M1-a
# [5] = both doses (30 and 60 olives groups)
# [6] = 30 olives group (hydroxytyrosol 2.95 mg/kg oral), listed as hydroxytyrosol sulfate M1-b
# [7] = 60 olives group (hydroxytyrosol 5.89 mg/kg oral), listed as hydroxytyrosol sulfate M1-b
substance,measurement,setting,value
hydroxytyrosol sulfate,share in rat plasma,"[1]; after phenolic extract from olive cake containing 10.35 mg/kg of hydroxytyrosol, ref Serra et al. 23",92%
same,share represented by hydroxytyrosol sulfates,[1]; oral 10 mg/kg of hydroxytyrosol to rats,60%
same,share represented by hydroxytyrosol sulfates,[1]; oral 100 mg/kg of hydroxytyrosol to rats,75%
hydroxytyrosol sulfate [M1-a],AUC0–∞,"[2]; 30 olives group (3.85 g olives/kg, hydroxytyrosol 2.95 mg/kg oral), listed as hydroxytyrosol sulfate M1-a","4765 (3491, 6504)^a min·nmol/L"
same,Cmax/D,[2]; [3],"0.00899 (0.00522, 0.01546)^a"
same,AUC0–∞/D,[2]; [3],"0.90 (0.68, 1.23)^a"
same,AUCt/D,[2]; [3],"0.82 (0.60, 1.11)^a"
same,Cl/F·fm (apparent clearance of metabolite),[2]; [3],"4.02 (2.95, 5.48)^a L/min/kg"
same,MRT0–∞,[2]; [3],"173 (121.9, 245.5)^a min"
same,"Vdarea/F·fm (apparent volume of distribution of metabolite, terminal phase)",[2]; [3],"491 (190, 1264)^a L/kg"
same,Vss/F·fm (apparent steady-state volume of distribution of metabolite),[2]; [3],"616 (339, 1120)^a L/kg"
same,t1/2λz (apparent elimination half-life),[2]; [3],"130.1 (64.5, 262.2)^a min"
same,λz (apparent elimination rate constant),[2]; [3],"0.0053 (0.0026, 0.011)^a 1/min"
same,Tmax,[2]; [3],"45.5 (30, 120)^a min"
same,AUCt,[2]; [3],"4321 (3152, 5924)^a min·nmol/L"
same,Cmax,"[2]; 30 olives group: single oral 3.85 g destoned olives/kg (hydroxytyrosol 2.95 mg/kg), n = 6, listed as hydroxytyrosol sulfate M1-a",47.3 nM
same,AUC0–∞,"[2]; 60 olives group (7.70 g olives/kg, hydroxytyrosol 5.89 mg/kg oral), listed as hydroxytyrosol sulfate M1-a","13133 (9812, 17577)^b min·nmol/L"
same,Cmax/D,[2]; [4],"0.00872 (0.00562, 0.01354)^a"
same,AUC0–∞/D,[2]; [4],"1.18 (0.84, 1.64)^a"
same,AUCt/D,[2]; [4],"1.02 (0.75, 1.38)^a"
same,Cl/F·fm (apparent clearance of metabolite),[2]; [4],"2.91 (2.17, 3,89)^a L/min/kg"
same,MRT0–∞,[2]; [4],"188.3 (143.6, 246,9)^a min"
same,"Vdarea/F·fm (apparent volume of distribution of metabolite, terminal phase)",[2]; [4],"479 (290, 790)^a L/kg"
same,Vss/F·fm (apparent steady-state volume of distribution of metabolite),[2]; [4],"548 (380, 789)^a L/kg"
same,t1/2λz (apparent elimination half-life),[2]; [4],"129.4 (83.0, 201.6)^a min"
same,λz (apparent elimination rate constant),[2]; [4],"0.0054 (0.0034, 0.0083)^a 1/min"
same,Tmax,[2]; [4],"36 (30, 42)^a min"
same,AUCt,[2]; [4],"11376 (8674, 14919)^b min·nmol/L"
same,Cmax,"[2]; 60 olives group: single oral 7.70 g destoned olives/kg (hydroxytyrosol 5.89 mg/kg), n = 7, listed as hydroxytyrosol sulfate M1-a",97.3 nM
same,AUC ratio of metabolite versus parent hydroxytyrosol (AUC0–∞m/AUC0–∞),[2]; [5],around 1.5
same,Vss/F·fm and Vdarea/F·fm,[2]; [5],approximately 500 L/kg
same,half-life (t1/2λz),[2]; [5],approximately 2 h
same,mean residence time (MRT0–∞),[2]; [5],around 3 h
same,percentage of the AUC of each compound divided by the AUC of the sum of all of them,[2],12%
hydroxytyrosol sulfate [M1-b],AUC0–∞,"[2]; 30 olives group (3.85 g olives/kg, hydroxytyrosol 2.95 mg/kg oral), listed as hydroxytyrosol sulfate M1-b","28084 (20399, 38664)^a min·nmol/L"
same,Cmax/D,[2]; [6],"0.0582 (0.0343, 0.0985)^a"
same,AUC0–∞/D,[2]; [6],"5.33 (3.89, 7.31)^a"
same,AUCt/D,[2]; [6],"5.11 (3.78, 6.90)^a"
same,Cl/F·fm (apparent clearance of metabolite),[2]; [6],"0.68 (0.49, 0.94)^a L/min/kg"
same,MRT0–∞,[2]; [6],"141.4 (118.1, 169.3)^a min"
same,"Vdarea/F·fm (apparent volume of distribution of metabolite, terminal phase)",[2]; [6],"85.0 (57.2, 126)^a L/kg"
same,Vss/F·fm (apparent steady-state volume of distribution of metabolite),[2]; [6],"96.4 (62.6, 148)^a L/kg"
same,t1/2λz (apparent elimination half-life),[2]; [6],"86.4 (67.7, 110)^a min"
same,λz (apparent elimination rate constant),[2]; [6],"0.0080 (0.0063, 0.01024)^a 1/min"
same,Tmax,[2]; [6],"30.50 (30,120)^a min"
same,AUCt,[2]; [6],"26907 (19824, 36520)^a min·nmol/L"
same,Cmax,"[2]; 30 olives group: single oral 3.85 g destoned olives/kg (hydroxytyrosol 2.95 mg/kg), n = 6, listed as hydroxytyrosol sulfate M1-b",306 nM
same,AUC0–∞,"[2]; 60 olives group (7.70 g olives/kg, hydroxytyrosol 5.89 mg/kg oral), listed as hydroxytyrosol sulfate M1-b","80006 (65787, 97299)^b min·nmol/L"
same,Cmax/D,[2]; [7],"0.0491 (0.0333, 0.0726)^a"
same,AUC0–∞/D,[2]; [7],"7.17 (5.62, 9.14)^a"
same,AUCt/D,[2]; [7],"6.05 (4.76, 7.70)^a"
same,Cl/F·fm (apparent clearance of metabolite),[2]; [7],"0.48 (0.39, 0.58)^a L/min/kg"
same,MRT0–∞,[2]; [7],"198.8 (139.0, 284.3)^a min"
same,"Vdarea/F·fm (apparent volume of distribution of metabolite, terminal phase)",[2]; [7],"75.1 (45.7, 123)^a L/kg"
same,Vss/F·fm (apparent steady-state volume of distribution of metabolite),[2]; [7],"83.5 (61.6, 112.9)^a L/kg"
same,t1/2λz (apparent elimination half-life),[2]; [7],"129.3 (74.1, 225.6)^a min"
same,λz (apparent elimination rate constant),[2]; [7],"0.0054 (0.0031, 0.0094)^a 1/min"
same,Tmax,[2]; [7],"38 (30, 100)^a min"
same,AUCt,[2]; [7],"67548 (53591, 85140)^b min·nmol/L"
same,Cmax,"[2]; 60 olives group: single oral 7.70 g destoned olives/kg (hydroxytyrosol 5.89 mg/kg), n = 7, listed as hydroxytyrosol sulfate M1-b",548 nM
same,Vss/F·fm and Vdarea/F·fm,[2]; [5],~90 L/kg
same,half-life (t1/2λz),[2]; [5],approximately 2 h
same,mean residence time (MRT0–∞),[2]; [5],around 3 h
same,percentage of the AUC of each compound divided by the AUC of the sum of all of them,[2],approximately 73%
